The values below come from patent publication US12600709B2, “Nonpeptide somatostatin type 5 receptor agonists and uses thereof” (Crinetics Pharmaceuticals, Inc., priority 2019, dated 2026).

Assay [1] addresses T1, human somatostatin receptor subtype 5 (Homo sapiens, UniProt P35346).
T1 construct: expressed in transfected cells
Put plainly: cAMP assay for SST5R (inhibition of cAMP in CHO-K1 cells). It is filed as cell-based. The following applies: for EC50: inhibition of cAMP via human SST5 receptor, read-out: SST5 potency; for Fold selectivity for SST5 vs SST2: class symbols, SST5 receptor over SST2 receptor. The gist of the method:
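CHO-K1 cells stably expressing human SSTR5 were treated 20 min at 37 °C with compounds plus 1.6 μM NKH477 in HBSS, 0.5 mM HEPES pH 7.4, 0.1% BSA, 0.2 mM IBMX. Lysate cAMP measured by HTRF against a standard curve; EC50 from cAMP-versus-concentration plots.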

Assay [2] deals with T2, human somatostatin receptor subtype 2 (Homo sapiens, UniProt P30874).
T2 construct: expressed in transfected cells
T2 sequence (P30874 whole entry): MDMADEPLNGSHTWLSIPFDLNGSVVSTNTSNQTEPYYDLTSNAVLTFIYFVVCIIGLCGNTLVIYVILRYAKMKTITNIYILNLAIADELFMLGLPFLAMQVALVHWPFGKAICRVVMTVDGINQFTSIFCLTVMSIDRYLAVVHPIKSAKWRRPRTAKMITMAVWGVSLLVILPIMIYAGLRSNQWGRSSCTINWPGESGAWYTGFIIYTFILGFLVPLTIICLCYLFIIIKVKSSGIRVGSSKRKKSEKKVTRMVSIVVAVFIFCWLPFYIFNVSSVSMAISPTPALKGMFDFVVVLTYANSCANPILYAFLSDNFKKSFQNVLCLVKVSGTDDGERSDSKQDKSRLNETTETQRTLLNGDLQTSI
Put plainly: cAMP assay for SST2R (inhibition of cAMP in CHO-K1 cells). The assay is classed as cell-based. The following applies: Table B; inhibition of cAMP via human SST2 receptor; read-out: SST2 potency. An excerpt: General overview: All five SSTR subtypes are Gi coupled G-protein coupled receptors (GPCRs) that lead to decreases in intracellular cyclic AMP (cAMP) when activated by an agonist. Therefore, measurement of intracellular cAMP levels can be used to assess whether compounds of the invention are agonists of SSTR subtypes (John Kelly, Troy Stevens, W. Joseph Thompson, and Roland Seifert, Current Protocols in Pharmacology, 2005, 2.2.1-2.2). One example of an intracellular cAMP assay is described below.
cAMP Assay Protocol for SST2R:
Four days prior to the assay, 5,000 Chinese hamster ovary cells (CHO-K1, ATCC #CCL-61) stably expressing the human somatostatin receptor subtype 2 are plated in each well of a 96-well tissue culture-treated plate in Ham's F12 growth media (ThermoFisher #10-080-CM) supplemented with 10% donor bovine serum (Gemini Bio-Products #100-506), 100 U/mL penicillin; 100 μg/mL streptomycin; 2 mM L-glutamine (Gemini Bio-Products #400-110) and 0.2 mg/mL hygromycin B (GoldBio #31282-04-9). The cells are cultured at 37° C., 5% CO2 and 95% humidity. On the day of the assay, the media is aspirated and the cells are treated with 50 μL of 1.6 μM NKH477 (Sigma #N3290) plus various dilutions of compounds of the invention in assay buffer [1× Hank's Balanced Salt Solution (ThermoFisher #SH3058802), 0.5 mM HEPES pH 7.4, 0.1% bovine serum albumin, 0.2 mM 3-Isobutyl-1-methylxanthine (IBMX, VWR #200002-790)]. The cells are incubated for 20 minutes at 37° C. […] The cells are treated with 50 μL of lysis buffer (HRTF cAMP kit, Cisbio). The lysate is transferred to 384-well plates and cAMP detection and visualization antibodies are added and incubated for 1-24 hours at room temperature. The time-resolved fluorescent signal is read with a Tecan M1000Pro multiplate reader. The intracellular cAMP concentrations are calculated by regression to a standard curve and are plotted vs. the concentration of the compounds of the invention and the EC50 of the compounds are calculated using standard methods. All data manipulations are in GraphPad Prism v6 or v7.
Background: cAMP levels reflect the balance of adenylyl cyclase and phosphodiesterase activity.

Where two headings read alike, the source gives them in different places.

T1 sequence (P35346 whole entry): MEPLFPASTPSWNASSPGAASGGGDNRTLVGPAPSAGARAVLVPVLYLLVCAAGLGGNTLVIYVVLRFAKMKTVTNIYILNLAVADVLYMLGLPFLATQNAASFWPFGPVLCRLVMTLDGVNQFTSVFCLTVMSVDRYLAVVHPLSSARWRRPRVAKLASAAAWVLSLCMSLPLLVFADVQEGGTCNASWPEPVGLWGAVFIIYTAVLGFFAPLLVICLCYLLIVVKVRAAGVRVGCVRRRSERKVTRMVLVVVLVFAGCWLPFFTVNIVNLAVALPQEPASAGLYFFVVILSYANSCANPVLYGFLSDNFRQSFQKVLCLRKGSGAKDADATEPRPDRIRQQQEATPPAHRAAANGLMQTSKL

Turning to `CC1(NC(=O)c2cncc(-c3cc(F)cc(F)c3)c2N2CC[C@](C)(N)C2)CCC1` [1-34, 4-[(3S)-3-amino-3-methylpyrrolidin-1-yl]-5-(3,5-difluorophenyl)-N-(1-methylcyclobutyl)pyridine-3-carboxamide], the EC50 was below 10 nM in assay [1] (Table A), below 10 nM in assay [1] (Table B) and 100 to 1000 nM in assay [2]. Further, the “Fold selectivity for SST5 vs SST2” value in assay [1] (Table B) is recorded as “++ (++=100 to 499)”.
Consider `C[C@]1(N)CCN(c2c(C(=O)NC3CC(F)(F)C3)cncc2-c2cc(F)cc(Cl)c2)C1` [1-35, 4-[(3S)-3-amino-3-methylpyrrolidin-1-yl]-5-(3-chloro-5-fluorophenyl)-N-(3,3-difluorocyclobutyl)pyridine-3-carboxamide], for which the EC50 was below 10 nM in assay [1] (Table A), below 10 nM in assay [1] (Table B) and 100 to 1000 nM in assay [2]. Besides, the “Fold selectivity for SST5 vs SST2” value in assay [1] (Table B) is reported as “++ (++=100 to 499)”.
Take `C[C@H](NC(=O)c1cncc(-c2cc(F)cc(F)c2)c1N1CC[C@](C)(N)C1)C1CC1` [1-41, 4-[(3S)-3-amino-3-methylpyrrolidin-1-yl]-N-[(1S)-1-cyclopropylethyl]-5-(3,5-difluorophenyl)pyridine-3-carboxamide]: the values for the EC50 in assay [1] (Table A), in assay [1] (Table B) and in assay [2] were below 10 nM, below 10 nM and 10 to 100 nM, respectively. The “Fold selectivity for SST5 vs SST2” value in assay [1] (Table B) is listed as “++ (++=100 to 499)”.
On to `C[C@@H](NC(=O)c1cncc(-c2cc(F)cc(F)c2)c1N1CC[C@](C)(N)C1)C1CC1` [1-44, 4-[(3S)-3-amino-3-methylpyrrolidin-1-yl]-N-[(1R)-1-cyclopropylethyl]-5-(3,5-difluorophenyl)pyridine-3-carboxamide], for which the EC50 was below 10 nM in assay [1] (Table A), below 10 nM in assay [1] (Table B) and 100 to 1000 nM in assay [2]. Further, in assay [1] (Table B), the “Fold selectivity for SST5 vs SST2” value is on record as “++ (++=100 to 499)”.
For `C[C@]1(N)CCN(c2c(C(=O)NCC3(F)CCC3)cncc2-c2cc(F)cc(F)c2)C1` [1-47, 4-[(3S)-3-amino-3-methylpyrrolidin-1-yl]-5-(3,5-difluorophenyl)-N-[(1-fluorocyclobutyl)methyl]pyridine-3-carboxamide], the EC50 in assay [1] (Table A) was below 10 nM; in assay [1] (Table B) it was below 10 nM; in assay [2] it was 100 to 1000 nM. Further, the “Fold selectivity for SST5 vs SST2” value in assay [1] (Table B) was “+++ (+++=>500)”.
On to `C[C@]1(N)CCN(c2c(C(=O)NC3CCC(F)(F)CC3)cnc(C#N)c2-c2cc(F)cc(F)c2)C1` [1-48, 4-[(3S)-3-amino-3-methylpyrrolidin-1-yl]-6-cyano-N-(4,4-difluorocyclohexyl)-5-(3,5-difluorophenyl)pyridine-3-carboxamide], for which the EC50 in assay [1] (Table A) is below 10 nM; in assay [1] (Table B), below 10 nM; in assay [2], 100 to 1000 nM. In assay [1] (Table B), the “Fold selectivity for SST5 vs SST2” value is recorded as “+++ (+++=>500)”.
Consider `C[C@]1(N)CCN(c2c(C(=O)NC34CC(C3)C4)cnc(C#N)c2-c2cc(F)cc(F)c2)C1` [1-49, 4-[(3S)-3-amino-3-methylpyrrolidin-1-yl]-N-{bicyclo[1.1.1]pentan-1-yl}-6-cyano-5-(3,5-difluorophenyl)pyridine-3-carboxamide], for which the EC50 in assay [1] (Table A) is below 10 nM; in assay [1] (Table B), below 10 nM; in assay [2], 100 to 1000 nM. Further, the “Fold selectivity for SST5 vs SST2” value in assay [1] (Table B) is recorded as “+++ (+++=>500)”.
As to `C[C@]1(N)CCN(c2c(C(=O)NC(C3CC3)C3CC3)cncc2-c2cc(F)cc(F)c2)C1` [1-51, 4-[(3S)-3-amino-3-methylpyrrolidin-1-yl]-N-(dicyclopropylmethyl)-5-(3,5-difluorophenyl)pyridine-3-carboxamide], the EC50 was below 10 nM in assay [1] (Table A), below 10 nM in assay [1] (Table B) and 100 to 1000 nM in assay [2]. The “Fold selectivity for SST5 vs SST2” value in assay [1] (Table B) is “+++ (+++=>500)”.
`C[C@H](NC(=O)c1cncc(-c2cc(F)cc(F)c2)c1N1CC[C@](C)(N)C1)C(F)(F)F` [1-54, 4-[(3S)-3-amino-3-methylpyrrolidin-1-yl]-5-(3,5-difluorophenyl)-N-[(2S)-1,1,1-trifluoropropan-2-yl]pyridine-3-carboxamide]: the figures for the EC50 in assay [1] (Table A), in assay [1] (Table B) and in assay [2] were below 10 nM, below 10 nM and 100 to 1000 nM, respectively. Also, the “Fold selectivity for SST5 vs SST2” value in assay [1] (Table B) was “++ (++=100 to 499)”.
Turning to `CCC(C)CNC(=O)c1cncc(-c2cc(F)cc(F)c2)c1N1CC[C@](C)(N)C1` (stereo partly drawn) [1-57, 4-[(3S)-3-amino-3-methylpyrrolidin-1-yl]-5-(3,5-difluorophenyl)-N-(2-methylbutyl)pyridine-3-carboxamide], the EC50 in assay [1] (Table A) is below 10 nM; in assay [1] (Table B), below 10 nM; in assay [2], 100 to 1000 nM. In assay [1] (Table B), the “Fold selectivity for SST5 vs SST2” value was “++ (++=100 to 499)”.
In the case of `CCC(CC)CNC(=O)c1cncc(-c2cc(F)cc(F)c2)c1N1CC[C@](C)(N)C1` [1-58, 4-[(3S)-3-amino-3-methylpyrrolidin-1-yl]-5-(3,5-difluorophenyl)-N-(2-ethylbutyl)pyridine-3-carboxamide], the EC50 is below 10 nM in assay [1] (Table A), below 10 nM in assay [1] (Table B) and 100 to 1000 nM in assay [2]. For the same compound, the “Fold selectivity for SST5 vs SST2” value in assay [1] (Table B) was “+++ (+++=>500)”.
Consider `N[C@H]1CCN(c2c(C(=O)NC(C3CC3)C3CC3)cncc2-c2cc(F)cc(Cl)c2)C1` [1-61, 4-[(3S)-3-aminopyrrolidin-1-yl]-5-(3-chloro-5-fluorophenyl)-N-(dicyclopropylmethyl)pyridine-3-carboxamide], for which the EC50 in assay [1] (Table A) was below 10 nM; in assay [1] (Table B) it was below 10 nM; in assay [2], above 1000 nM. In addition, the “Fold selectivity for SST5 vs SST2” value in assay [1] (Table B) was “+++ (+++=>500)”.
For `N#Cc1ncc(C(=O)NC23CC(C2)C3)c(N2CC[C@H](N)C2)c1-c1cc(F)cc(F)c1` [1-64, 4-[(3S)-3-aminopyrrolidin-1-yl]-N-{bicyclo[1.1.1]pentan-1-yl}-6-cyano-5-(3,5-difluorophenyl)pyridine-3-carboxamide], the EC50 in assay [1] (Table A) is below 10 nM; in assay [1] (Table B), below 10 nM; in assay [2] it was above 1000 nM. Besides, in assay [1] (Table B), the “Fold selectivity for SST5 vs SST2” value is recorded as “+++ (+++=>500)”.
For the compound `N#Cc1ncc(C(=O)NC23CC(C2)C3)c(N2CC[C@H](N)C2)c1-c1ccc(F)c(F)c1` [1-66, 4-[(3S)-3-aminopyrrolidin-1-yl]-N-{bicyclo[1.1.1]pentan-1-yl}-6-cyano-5-(3,4-difluorophenyl)pyridine-3-carboxamide], the EC50 in assay [1] (Table A) is below 10 nM; in assay [1] (Table B), below 10 nM; in assay [2], above 1000 nM. In assay [1] (Table B), the “Fold selectivity for SST5 vs SST2” value was “+++ (+++=>500)”.
Take `N#Cc1ncc(C(=O)NC2CCC(F)(F)CC2)c(N2CC[C@H](N)C2)c1-c1cc(F)cc(F)c1` [1-67, 4-[(3S)-3-aminopyrrolidin-1-yl]-6-cyano-N-(4,4-difluorocyclohexyl)-5-(3,5-difluorophenyl)pyridine-3-carboxamide]: the EC50 was below 10 nM in assay [1] (Table A), below 10 nM in assay [1] (Table B) and above 1000 nM in assay [2]. Besides, the “Fold selectivity for SST5 vs SST2” value in assay [1] (Table B) is listed as “+++ (+++=>500)”.
As for `N#Cc1ncc(C(=O)NC2CC(F)(F)C2)c(N2CC[C@H](N)C2)c1-c1cc(F)cc(F)c1` [1-68, 4-[(3S)-3-aminopyrrolidin-1-yl]-6-cyano-N-(3,3-difluorocyclobutyl)-5-(3,5-difluorophenyl)pyridine-3-carboxamide], the EC50 in assay [1] (Table A) is below 10 nM; in assay [1] (Table B), below 10 nM; in assay [2] it was above 1000 nM. The “Fold selectivity for SST5 vs SST2” value in assay [1] (Table B) is listed as “+++ (+++=>500)”.
On to `C[C@H](NC(=O)c1cnc(C#N)c(-c2cc(F)cc(F)c2)c1N1CC[C@H](N)C1)C1CC1` [1-69, 4-[(3S)-3-aminopyrrolidin-1-yl]-6-cyano-N-[(1S)-1-cyclopropylethyl]-5-(3,5-difluorophenyl)pyridine-3-carboxamide], for which the values for the EC50 in assay [1] (Table A), in assay [1] (Table B) and in assay [2] were below 10 nM, below 10 nM and 100 to 1000 nM, respectively. For the same compound, in assay [1] (Table B), the “Fold selectivity for SST5 vs SST2” value is given as “+++ (+++=>500)”.
As for `N#Cc1ncc(C(=O)NC(C2CC2)C2CC2)c(N2CC[C@H](N)C2)c1-c1cc(F)cc(F)c1` [1-70, 4-[(3S)-3-aminopyrrolidin-1-yl]-6-cyano-N-(dicyclopropylmethyl)-5-(3,5-difluorophenyl)pyridine-3-carboxamide], the EC50 is below 10 nM in assay [1] (Table A), below 10 nM in assay [1] (Table B) and above 1000 nM in assay [2]. The “Fold selectivity for SST5 vs SST2” value in assay [1] (Table B) is “+++ (+++=>500)”.
